Measured values as given in patent US12522607B2, “Substituted pyrazolo[3,4-d]pyrimidines as wee-1 inhibitors” (WIGEN BIOMEDICINE TECHNOLOGY (SHANGHAI) CO., LTD., priority 2020, dated 2026).
pIC50: −log10 of the molar value.

Tests used:
Wee-1 kinase = target: T1, Wee-1 kinase (Homo sapiens, UniProt P30291); experiment: Inhibitory activity against Wee-1 kinase (Lanthra Screen Wee-1 kinase kit, Tracer 178); format: binding; conditions: Wee-1 kinase 5 nM, Tracer 178 50 nM, 1 h room temperature
T1 construct: purchased Invitrogen
Description: Example 342. Assay for Inhibitory Activity of Compounds Against Wee-1 Kinase
The inhibitory activity of compounds against Wee-1 kinase was determined by using the Lanthra Screen Wee-1 kinase kit (Invitrogen). 5 μL of the compound diluted in a gradient with DMSO, 5 μL. of Wee-1 kinase (at a final concentration of 5 nM), 5 μL of an Eu-Anti-GST antibody (at a final concentration of 2 nM) mixture and 5 μL of kinase Tracer 178 (at a final concentration of 50 nM) were mixed well. The plate was read after incubation at room temperature for one hour. For comparison with the DMSO solvent control group, IC50 for the inhibition activity of the compounds against Wee-1 kinase was calculated.

HT29 cells = experiment: Antiproliferative activity against HT29 cells (Cell Titer-Lumi, ATP content); format: cell-based; conditions: Homo sapiens, HT-29, 72 after compound addition, read-out: HT-29 cells Anti-proliferative activity (IC50 for the inhibition against HT-29 cell growth)
Description: Example 343. Assay for Antiproliferative Activity Against HT29 Cells
3000 HT29 cells were seed in a 384-well plate (Fisher 142762). After the cells adhered to the wall overnight, the compounds diluted in a gradient were added. 72 later, Cell Titer-Lumi (Beyotime C0068XL) was added to determine the content of ATP in the cells. The growth of the cells was evaluated, and the IC50 for the inhibition of the compounds against cell growth was calculated.

T1 sequence (P30291 whole entry): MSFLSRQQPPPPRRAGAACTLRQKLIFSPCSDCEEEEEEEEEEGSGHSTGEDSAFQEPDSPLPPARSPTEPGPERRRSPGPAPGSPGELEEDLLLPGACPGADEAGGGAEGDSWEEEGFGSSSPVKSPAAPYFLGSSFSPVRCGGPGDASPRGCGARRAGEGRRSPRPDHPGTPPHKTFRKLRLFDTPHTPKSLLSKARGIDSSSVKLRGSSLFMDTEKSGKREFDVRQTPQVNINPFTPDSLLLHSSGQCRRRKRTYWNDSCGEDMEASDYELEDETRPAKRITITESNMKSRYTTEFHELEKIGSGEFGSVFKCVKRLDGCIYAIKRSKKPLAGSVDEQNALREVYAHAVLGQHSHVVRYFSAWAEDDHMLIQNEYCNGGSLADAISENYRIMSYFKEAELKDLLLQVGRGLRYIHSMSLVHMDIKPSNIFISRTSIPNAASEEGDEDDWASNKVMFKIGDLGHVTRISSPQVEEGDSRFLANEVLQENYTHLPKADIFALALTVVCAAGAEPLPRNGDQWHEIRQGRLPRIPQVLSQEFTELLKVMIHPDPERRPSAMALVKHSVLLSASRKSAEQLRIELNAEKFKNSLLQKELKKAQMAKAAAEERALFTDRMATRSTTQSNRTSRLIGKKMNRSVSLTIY

| SMILES | pIC50 (Wee-1 kinase) | pIC50 (HT29 cells) |
| --- | --- | --- |
| C=CCn1c(=O)c2cnc(Nc3ccc(N4CCC(C)(N)CC4)c(C)c3)nc2n1-c1ccc(=O)n(C(C)C)n1 [Compound 108] | ≥ 7.52 | ≥ 6.00 |
| C=CCn1c(=O)c2cnc(Nc3ccc(N4CCC(C)(N)CC4)c(OC)c3)nc2n1-c1ccc(=O)n(C(C)C)n1 [Compound 109] | ≥ 7.52 | ≥ 6.00 |
| C=CCn1c(=O)c2cnc(Nc3ccc(N4CCC(C)(NC)CC4)cc3)nc2n1-c1ccc(=O)n(C(C)C)n1 [Compound 110] | ≥ 7.52 | ≥ 6.00 |
| C=CCn1c(=O)c2cnc(Nc3ccc(N4CCC(C)(NC)CC4)c(C)c3)nc2n1-c1ccc(=O)n(C(C)C)n1 [Compound 111] | ≥ 7.52 | ≥ 6.00 |
| C=CCn1c(=O)c2cnc(Nc3ccc(N4CCC(C)(NC)CC4)c(OC)c3)nc2n1-c1ccc(=O)n(C(C)C)n1 [Compound 112] | ≥ 7.52 | ≥ 6.00 |
| C=CCn1c(=O)c2cnc(Nc3ccc(N4CCC(C)(N(C)C)CC4)cc3)nc2n1-c1ccc(=O)n(C(C)C)n1 [Compound 113] | ≥ 7.52 | ≥ 6.00 |
| C=CCn1c(=O)c2cnc(Nc3ccc(N4CCC(C)(N(C)C)CC4)c(C)c3)nc2n1-c1ccc(=O)n(C(C)C)n1 [Compound 114] | ≥ 7.52 | ≥ 6.00 |
| C=CCn1c(=O)c2cnc(Nc3ccc(N4CCC(C)(N(C)C)CC4)c(OC)c3)nc2n1-c1ccc(=O)n(C(C)C)n1 [Compound 115] | ≥ 7.52 | ≥ 6.00 |
| C=CCn1c(=O)c2cnc(Nc3ccc(N4C[C@@H](C)N[C@@H](C)C4)cc3)nc2n1-c1ccc(=O)n(C(C)C)n1 [Compound 116] | ≥ 7.52 | ≥ 6.00 |
| C=CCn1c(=O)c2cnc(Nc3ccc(N4C[C@@H](C)N(C)[C@@H](C)C4)cc3)nc2n1-c1ccc(=O)n(C(C)C)n1 [Compound 117] | ≥ 7.52 | ≥ 6.00 |
| C=CCn1c(=O)c2cnc(Nc3ccc(N4C[C@@H](C)N[C@@H](C)C4)c(C)c3)nc2n1-c1ccc(=O)n(C(C)C)n1 [Compound 118] | ≥ 7.52 | ≥ 6.00 |
| C=CCn1c(=O)c2cnc(Nc3ccc(N4C[C@@H](C)N(C)[C@@H](C)C4)c(C)c3)nc2n1-c1ccc(=O)n(C(C)C)n1 [Compound 119] | ≥ 7.52 | ≥ 6.00 |
| C=CCn1c(=O)c2cnc(Nc3ccc(N4C[C@@H](C)N[C@@H](C)C4)c(Cl)c3)nc2n1-c1ccc(=O)n(C(C)C)n1 [Compound 120] | ≥ 7.52 | ≥ 6.00 |
| C=CCn1c(=O)c2cnc(Nc3ccc(N4C[C@@H](C)N(C)[C@@H](C)C4)c(Cl)c3)nc2n1-c1ccc(=O)n(C(C)C)n1 [Compound 121] | ≥ 7.52 | ≥ 6.00 |
| C=CCn1c(=O)c2cnc(Nc3ccc(N4C[C@@H](C)N[C@@H](C)C4)c(C(F)(F)F)c3)nc2n1-c1ccc(=O)n(C(C)C)n1 [Compound 122] | ≥ 7.52 | ≥ 6.00 |
| C=CCn1c(=O)c2cnc(Nc3ccc(N4C[C@@H](C)N(C)[C@@H](C)C4)c(C(F)(F)F)c3)nc2n1-c1ccc(=O)n(C(C)C)n1 [Compound 123] | ≥ 7.52 | ≥ 6.00 |
| C=CCn1c(=O)c2cnc(Nc3ccc(N4C[C@H](C)NC[C@H]4C)cc3)nc2n1-c1ccc(=O)n(C(C)C)n1 [Compound 124] | ≥ 7.52 | ≥ 6.00 |
| C=CCn1c(=O)c2cnc(Nc3ccc(N4C[C@H](C)N(C)C[C@H]4C)cc3)nc2n1-c1ccc(=O)n(C(C)C)n1 [Compound 125] | ≥ 7.52 | ≥ 6.00 |
| C=CCn1c(=O)c2cnc(Nc3ccc(N4C[C@H](C)NC[C@H]4C)c(C)c3)nc2n1-c1ccc(=O)n(C(C)C)n1 [Compound 126] | ≥ 7.52 | ≥ 6.00 |
| C=CCn1c(=O)c2cnc(Nc3ccc(N4C[C@H](C)N(C)C[C@H]4C)c(C)c3)nc2n1-c1ccc(=O)n(C(C)C)n1 [Compound 127] | ≥ 7.52 | ≥ 6.00 |
| C=CCn1c(=O)c2cnc(Nc3ccc(N4CCN[C@@H](C)C4)cc3)nc2n1-c1ccc(=O)n(C(C)C)n1 [Compound 128] | ≥ 7.52 | ≥ 6.00 |
| C=CCn1c(=O)c2cnc(Nc3ccc(N4CCN(C)[C@@H](C)C4)cc3)nc2n1-c1ccc(=O)n(C(C)C)n1 [Compound 129] | ≥ 7.52 | ≥ 6.00 |
| C=CCn1c(=O)c2cnc(Nc3ccc(N4CCN[C@@H](C)C4)c(C)c3)nc2n1-c1ccc(=O)n(C(C)C)n1 [Compound 130] | ≥ 7.52 | ≥ 6.00 |
| C=CCn1c(=O)c2cnc(Nc3ccc(N4CCN[C@H](C)C4)cc3)nc2n1-c1ccc(=O)n(C(C)C)n1 [Compound 131] | ≥ 7.52 | ≥ 6.00 |
| C=CCn1c(=O)c2cnc(Nc3ccc(N4CCN(C)[C@H](C)C4)cc3)nc2n1-c1ccc(=O)n(C(C)C)n1 [Compound 132] | ≥ 7.52 | ≥ 6.00 |

| SMILES | pIC50 (Wee-1 kinase) | pIC50 (HT29 cells) |
| --- | --- | --- |
| C=CCn1c(=O)c2cnc(Nc3ccc(N4CCN[C@H](C)C4)c(C)c3)nc2n1-c1ccc(=O)n(C(C)C)n1 [Compound 133] | ≥ 7.52 | ≥ 6.00 |
| C=CCn1c(=O)c2cnc(Nc3ccc(N4CCN(C)[C@H](C)C4)c(C)c3)nc2n1-c1ccc(=O)n(C(C)C)n1 [Compound 134] | ≥ 7.52 | ≥ 6.00 |
| C=CCn1c(=O)c2cnc(Nc3ccc(N4CC5CCC(C4)N5)cc3)nc2n1-c1ccc(=O)n(C(C)C)n1 [Compound 135] | 7.00 to 7.52 | 5.52 to 6.00 |
| C=CCn1c(=O)c2cnc(Nc3ccc(N4CC5CCC(C4)N5C)cc3)nc2n1-c1ccc(=O)n(C(C)C)n1 [Compound 136] | 7.00 to 7.52 | 5.52 to 6.00 |
| C=CCn1c(=O)c2cnc(Nc3ccc(N4CC5CCC(C4)N5)c(C)c3)nc2n1-c1ccc(=O)n(C(C)C)n1 [Compound 137] | ≥ 7.52 | 5.52 to 6.00 |
| C=CCn1c(=O)c2cnc(Nc3ccc(N4CC5CCC(C4)N5C)c(C)c3)nc2n1-c1ccc(=O)n(C(C)C)n1 [Compound 138] | ≥ 7.52 | 5.52 to 6.00 |
| C=CCn1c(=O)c2cnc(Nc3ccc(N4CCN(C5CCN(C)CC5)CC4)c(C)c3)nc2n1-c1ccc(=O)n(C(C)C)n1 [Compound 139] | ≥ 7.52 | ≥ 6.00 |
| C=CCn1c(=O)c2cnc(Nc3ccc(N4CCN(C5CCN(C)CC5)CC4)c(F)c3)nc2n1-c1ccc(=O)n(C(C)C)n1 [Compound 140] | ≥ 7.52 | ≥ 6.00 |
| C=CCn1c(=O)c2cnc(Nc3ccc(N4CCN(C5CCN(C)CC5)CC4)c(OC)c3)nc2n1-c1ccc(=O)n(C(C)C)n1 [Compound 141] | ≥ 7.52 | ≥ 6.00 |
| C=CCn1c(=O)c2cnc(Nc3ccc(N4CCC(N5CCN(C)CC5)CC4)cc3)nc2n1-c1ccc(=O)n(C(C)C)n1 [Compound 142] | ≥ 7.52 | ≥ 6.00 |
| C=CCn1c(=O)c2cnc(Nc3ccc(N4CCC(N5CCN(C)CC5)CC4)c(C)c3)nc2n1-c1ccc(=O)n(C(C)C)n1 [Compound 143] | ≥ 7.52 | ≥ 6.00 |
| C=CCn1c(=O)c2cnc(Nc3ccc(N4CCC(N5CCN(C)CC5)CC4)c(OC)c3)nc2n1-c1ccc(=O)n(C(C)C)n1 [Compound 144] | ≥ 7.52 | ≥ 6.00 |
| C=CCn1c(=O)c2cnc(Nc3ccc(N4CCC(N5CCCCC5)CC4)cc3)nc2n1-c1ccc(=O)n(C(C)C)n1 [Compound 145] | ≥ 7.52 | ≥ 6.00 |
| C=CCn1c(=O)c2cnc(Nc3ccc(N4CCC(N5CCCCC5)CC4)c(C)c3)nc2n1-c1ccc(=O)n(C(C)C)n1 [Compound 146] | ≥ 7.52 | ≥ 6.00 |
| C=CCn1c(=O)c2cnc(Nc3ccc(N4CCC(N5CCCCC5)CC4)c(OC)c3)nc2n1-c1ccc(=O)n(C(C)C)n1 [Compound 147] | ≥ 7.52 | ≥ 6.00 |
| C=CCn1c(=O)c2cnc(Nc3ccc(N4CCC(N5CCOCC5)CC4)cc3)nc2n1-c1ccc(=O)n(C(C)C)n1 [Compound 148] | ≥ 7.52 | ≥ 6.00 |
| C=CCn1c(=O)c2cnc(Nc3ccc(N4CCC(N5CCOCC5)CC4)c(C)c3)nc2n1-c1ccc(=O)n(C(C)C)n1 [Compound 149] | ≥ 7.52 | ≥ 6.00 |
| C=CCn1c(=O)c2cnc(Nc3ccc(N4CCC(N5CCOCC5)CC4)c(OC)c3)nc2n1-c1ccc(=O)n(C(C)C)n1 [Compound 150] | ≥ 7.52 | ≥ 6.00 |
| C=CCn1c(=O)c2cnc(Nc3ccc(N4CCC(N5CCC(F)(F)CC5)CC4)cc3)nc2n1-c1ccc(=O)n(C(C)C)n1 [Compound 151] | ≥ 7.52 | ≥ 6.00 |
| C=CCn1c(=O)c2cnc(Nc3ccc(N4CCC(N5CCC(F)(F)CC5)CC4)c(C)c3)nc2n1-c1ccc(=O)n(C(C)C)n1 [Compound 152] | ≥ 7.52 | ≥ 6.00 |
| C=CCn1c(=O)c2cnc(Nc3ccc(N4CCC(N5CCC(F)(F)CC5)CC4)c(OC)c3)nc2n1-c1ccc(=O)n(C(C)C)n1 [Compound 153] | ≥ 7.52 | ≥ 6.00 |
| C=CCn1c(=O)c2cnc(Nc3ccc(N4CC5(CNC5)C4)cc3)nc2n1-c1ccc(=O)n(C(C)C)n1 [Compound 154] | ≥ 7.52 | 5.52 to 6.00 |
| C=CCn1c(=O)c2cnc(Nc3ccc(N4CC5(CNC5)C4)c(C)c3)nc2n1-c1ccc(=O)n(C(C)C)n1 [Compound 155] | ≥ 7.52 | ≥ 6.00 |
| C=CCn1c(=O)c2cnc(Nc3ccc(N4CC5(CNC5)C4)c(OC)c3)nc2n1-c1ccc(=O)n(C(C)C)n1 [Compound 156] | ≥ 7.52 | 5.52 to 6.00 |
| C=CCn1c(=O)c2cnc(Nc3ccc(N4CC5(CN(C)C5)C4)cc3)nc2n1-c1ccc(=O)n(C(C)C)n1 [Compound 157] | ≥ 7.52 | ≥ 6.00 |
